From PubChem BioAssay (NCI)
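The compound was tested at five concentrations on cells cultured in 96-well plates, with a 48-hour exposure period. GI50 = concentration required for 50% inhibition of growth. TGI marks complete inhibition of growth.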

Assays:
Test in all cases: inhibition of tumour cell growth, NCI panel, 48 h
[1] = system: 786-0 renal
[2] = system: A498 renal
[3] = system: A549 NSCLC
[4] = system: ACHN renal
[5] = system: BT-549 breast
[6] = system: CAKI-1 renal
[7] = system: CCRF-CEM leukemia
[8] = system: COLO 205 colon
[9] = system: DU-145 prostate
[10] = system: EKVX NSCLC
[11] = system: HCC-2998 colon
[12] = system: HCT-116 colon
[13] = system: HCT-15 colon
[14] = system: HL-60(TB) leukemia
[15] = system: HOP-62 NSCLC
[16] = system: HOP-92 NSCLC
[17] = system: HS 578T breast
[18] = system: HT29 colon
[19] = system: IGROV1 ovarian
[20] = system: K-562 leukemia
[21] = system: KM12 colon
[22] = system: LOX IMVI melanoma
[23] = system: M14 melanoma
[24] = system: MALME-3M melanoma
[25] = system: MCF7 breast
[26] = system: MDA-MB-231 breast
[27] = system: MDA-MB-435
[28] = system: MOLT-4 leukemia
[29] = system: NCI-H226 lung
[30] = system: NCI-H23 lung
[31] = system: NCI-H460 lung
[32] = system: NCI-H522 lung
[33] = system: NCI/ADR-RES ovarian
[34] = system: OVCAR-3 ovarian
[35] = system: OVCAR-4 ovarian
[36] = system: OVCAR-5 ovarian
[37] = system: OVCAR-8 ovarian
[38] = system: PC-3 prostate
[39] = system: RPMI-8226 leukemia
[40] = system: RXF 393 renal
[41] = system: SF-268 CNS
[42] = system: SF-295 CNS
[43] = system: SF-539 CNS
[44] = system: SK-MEL-2 melanoma
[45] = system: SK-MEL-28 melanoma
[46] = system: SK-MEL-5 melanoma
[47] = system: SK-OV-3 ovarian
[48] = system: SN12C renal
[49] = system: SNB-19 CNS
[50] = system: SNB-75 CNS
[51] = system: SR leukemia
[52] = system: SW-620 colon
[53] = system: T-47D breast
[54] = system: TK-10 renal
[55] = system: U251 CNS
[56] = system: UACC-257 melanoma
[57] = system: UACC-62 melanoma
[58] = system: UO-31 renal

`COc1ccc2c(c1)C(=O)c1c-2n(CCCN(C)C)c(=O)c2ccccc12` gave a GI50 [1] of 0.176 µM, a TGI [1] of 2.3 µM and a GI50 [2] of 0.377 µM. It also gave a TGI [2] of 1.72 µM, a GI50 [3] of 0.119 µM and a TGI [3] of 0.559 µM. For the same compound, the GI50 [4] was 0.116 µM, the TGI [4] was 0.503 µM and the GI50 [5] was 0.521 µM. For the same compound, the TGI [5] was 3.11 µM, the GI50 [6] was 0.243 µM and the TGI [6] was 4.9 µM. For the same compound, the GI50 [7] was 0.077 µM, the TGI [7] was 0.629 µM and the GI50 [8] was 0.187 µM. It also gave a TGI [8] of 2.62 µM, a GI50 [9] of 0.249 µM and a TGI [9] of 2.82 µM. It also gave a GI50 [10] of 0.645 µM, a TGI [10] of 8.45 µM and a GI50 [11] of 0.187 µM. The TGI [11] was 0.955 µM, the GI50 [12] was 0.213 µM and the TGI [12] was 1.42 µM. It also gave a GI50 [13] of 0.25 µM, a TGI [13] of 3.95 µM and a GI50 [14] of 0.321 µM. For the same compound, the TGI [14] was 2.64 µM, the GI50 [15] was 0.433 µM and the TGI [15] was 11.2 µM. For the same compound, the GI50 [16] was 0.886 µM, the TGI [16] was 4.57 µM and the GI50 [17] was 0.624 µM. It also gave a TGI [17] of 5.99 µM, a GI50 [18] of 0.275 µM and a TGI [18] of 10.9 µM. It also gave a GI50 [19] of 0.344 µM, a TGI [19] of 12.3 µM and a GI50 [20] of 0.287 µM. For the same compound, the TGI [20] was 17.5 µM, the GI50 [21] was 0.412 µM and the TGI [21] was 5.25 µM. For the same compound, the GI50 [22] was 0.162 µM, the TGI [22] was 1.01 µM and the GI50 [23] was 0.483 µM. For the same compound, the TGI [23] was 1.87 µM, the GI50 [24] was 0.483 µM and the TGI [24] was 2.06 µM. The GI50 [25] was 0.0295 µM, the TGI [25] was 2.31 µM and the GI50 [26] was 1.86 µM. For the same compound, the TGI [26] was 12.9 µM, the GI50 [27] was 0.557 µM and the TGI [27] was 3.27 µM. The GI50 [28] was < 0.0307 µM, the TGI [28] was 12 µM and the GI50 [29] was 0.413 µM. The TGI [29] was 2.59 µM, the GI50 [30] was 0.318 µM and the TGI [30] was 1.31 µM. For the same compound, the GI50 [31] was 0.0517 µM, the TGI [31] was 0.454 µM and the GI50 [32] was 0.188 µM. The TGI [32] was 4.04 µM, the GI50 [33] was 0.349 µM and the TGI [33] was 9.66 µM. For the same compound, the GI50 [34] was 0.551 µM, the TGI [34] was 7.85 µM and the GI50 [35] was 0.808 µM. For the same compound, the TGI [35] was 6.87 µM, the GI50 [36] was 0.515 µM and the TGI [36] was 12.7 µM. For the same compound, the GI50 [37] was 0.186 µM, the TGI [37] was 11.3 µM and the GI50 [38] was 0.436 µM. It also gave a TGI [38] of 8.07 µM, a GI50 [39] of 0.165 µM and a TGI [39] of 0.532 µM. It also gave a GI50 [40] of 0.53 µM, a TGI [40] of 2.34 µM and a GI50 [41] of 0.258 µM. It also gave a TGI [41] of 2.84 µM, a GI50 [42] of 0.223 µM and a TGI [42] of 1.21 µM. The GI50 [43] was 0.282 µM, the TGI [43] was 0.979 µM and the GI50 [44] was 1.86 µM. The TGI [44] was 7.18 µM, the GI50 [45] was 1.77 µM and the TGI [45] was 8.12 µM. The GI50 [46] was 0.123 µM, the TGI [46] was 0.406 µM and the GI50 [47] was 0.382 µM. The TGI [47] was 3.14 µM, the GI50 [48] was 0.255 µM and the TGI [48] was 5.7 µM. The GI50 [49] was 0.264 µM, the TGI [49] was 3.4 µM and the GI50 [50] was 0.648 µM. It also gave a TGI [50] of 5.29 µM, a TGI [51] of 11.3 µM and a GI50 [52] of 0.16 µM. The TGI [52] was 3.93 µM, the GI50 [53] was 0.309 µM and the TGI [53] was 3.56 µM. For the same compound, the GI50 [54] was 0.722 µM, the TGI [54] was 9.32 µM and the GI50 [55] was 0.197 µM. For the same compound, the TGI [55] was 3.68 µM, the GI50 [56] was 0.929 µM and the TGI [56] was 6.22 µM. The GI50 [57] was 0.922 µM, the TGI [57] was 2.5 µM and the GI50 [58] was 0.167 µM. For the same compound, the TGI [58] was 0.811 µM.
